From patent publication US7501523B2, “Method for preparing cucurbiturils” (NewSouth Innovations Pty Limited, priority 2003, dated 2009)

Tests used:
[1] = association constant of methane in the cucurbituril; assay type: binding; conditions: relative to decamethylcucurbit[5]uril
[2] = association constant of dioxane in the cucurbituril; assay type: binding; conditions: relative to tetramethylcucurbit[2,4]uril
[3] = solubility in water; assay type: physicochemical; conditions: compared with unsubstituted cucurbit[6]uril

With dimethylcucurbit[1,4]uril the “association constant of methane” value [1] was “three times higher”.
In the case of unsubstituted cucurbit[6]uril, the “association constant of dioxane” value [2] is reported as “two times higher”.
With α, δ-tetramethylcucurbit[2,4]uril the solubility in water [3] was “greater solubility in water than unsubstituted cucurbit[6]uril”.
